Patent publication US20230233580A1, “USE OF OXYGENATED CHOLESTEROL SULFATES FOR CANCERS AND NON-CANCEROUS TRANSFORMATIONS RELATED TO EPSTEIN-BARR VIRUS” (priority 2020, published 2023)

Columns and labels:
[1] = Metabolite profiling of plasma and feces, oral dose; assay type: in vivo, rats; settings: oral 75 mg/kg
From the text: Radiolabeled components in plasma and feces extracts were profiled and identified using radio-high performance liquid chromatography (HPLC) and high performance liquid chromatography/mass spectrometry (HPLC/MS) methods.

[2] = test system: 3 DNMTs and 9 other epigenetic enzymes; assay: Enzyme kinetic study of epigenetic enzymes; assay type: biochemical; settings: for effect on enzymatic activities: controls
[3] = Tissue distribution by quantitative whole body autoradiography, intravenous dose, pigmented rats; assay type: in vivo, male Long Evans rats; settings: intravenous 10 mg/kg
From the text: (§1) The objectives of this study were to determine the plasma pharmacokinetics of [4-^14C]-25HC3S-derived radioactivity in male Sprague Dawley rats, determine the routes of elimination and excretion mass balance of [4-^14C]-25HC3S-derived radioactivity in male Sprague Dawley rats, determine the tissue distribution and tissue pharmacokinetics of [4-^14C]-25HC3S-derived radioactivity using quantitative whole body autoradiography methods in male Sprague Dawley and Long Evans rats following a single intravenous (bolus) dose, and to provide plasma, urine, and fecal homogenate samples for metabolite profiling of [4-^14C]-25HC3S-derived radioactivity.
(§2) Nine male Sprague Dawley rats (Group 1) were designated for the pharmacokinetic phase, 3 male Sprague Dawley rats (Group 2) for the excretion mass balance phase, and 7 male Sprague Dawley rats (Group 3) and 9 male Long Evans rats (Group 4) for the tissue distribution phase. All animals received a single intravenous dose of [^14C]-25HC3S at 10 mg/kg and a target radioactivity of 225 pCi/kg. […] Following blood collection, animals were euthanized by CO2 inhalation and carcasses frozen in a dry ice/hexane bath for processing by quantitative whole body autoradiography. Whole blood, plasma, urine, feces, cage rinse, and cage wash were analyzed for total radioactivity by liquid scintillation counting.

[4] = Tissue distribution by quantitative whole body autoradiography, oral dose; assay type: in vivo, male Sprague Dawley rats
[5] = Excretion mass balance, oral dose; assay type: in vivo; settings: oral (gavage) 75 mg/kg, rats
[6] = Plasma pharmacokinetics of radioactivity, oral dose; assay type: in vivo; settings: single oral (gavage) dose 75 mg/kg, rats
[7] = Excretion mass balance, intravenous dose; assay type: in vivo, male Sprague Dawley rats; settings: over 168 hours, intravenous 10 mg/kg, rats
From the text: as §1, §2

[8] = Tissue distribution by quantitative whole body autoradiography, intravenous dose; assay type: in vivo, male Sprague Dawley rats; settings: intravenous 10 mg/kg
Experimental: as §2, with “[…] Blood samples were collected from all Group 1” for “All”, “animals” for “animals received a single intravenous dose of [^14C]-25HC3S”, “approximately 0.083, 0.25, 0.5, 1, 2, 4, 8, 12, 24, 48,” for “10 mg/kg”, “72 hours post-dose. Urine and feces were collected from all Group 2 animals periodically through 168 hours post-dose.” for “a target radioactivity of 225 pCi/kg.”

[9] = Plasma pharmacokinetics of radioactivity, intravenous dose; assay type: in vivo, male Sprague Dawley rats; settings: single intravenous (bolus) dose 10 mg/kg, rats
From the text: as §1
as §2, with “[…]. Blood samples were collected from all Group 1 animals at approximately 0.083, 0.25, 0.5, 1, 2, 4, 8, 12, 24, 48, and 72 hours post-dose. Urine and feces were collected from all Group 2 animals periodically through 168 hours post-dose.” for “pCi/kg.”

[10] = calculated using AUClast, oral 75 mg/kg

C[C@H](CCCC(C)(C)O)[C@H]1CC[C@H]2[C@@H]3CC=C4C[C@@H](O)CC[C@]4(C)[C@H]3CC[C@]12C [25HC, 25-Hydroxycholesterol, reference compound]
amount in feces, % of total dose ([1]; 0 to 168 hours post-dose pools): 1.9 % of total dose
relative observed intensity (ROI) in plasma ([1]; 2 hour post-dose plasma): 37%

C[C@@H](CO)CCC[C@@H](C)[C@H]1CC[C@H]2[C@@H]3CC=C4C[C@@H](O)CC[C@]4(C)[C@H]3CC[C@]12C [27HC, 27-Hydroxycholesterol]
effect on other enzymes (than DNMT-1) [2]: no effect

CC(C)CCC[C@@H](C)[C@H]1CC[C@H]2[C@@H]3CC=C4C[C@@H](OS(=O)(=O)O)CC[C@]4(C)[C@H]3CC[C@]12C [Xol3S, 5-cholesten-3β-ol, 3-sulfate]
effect on enzymatic activities [2]: did not significantly affect

CC(C)CCC[C@@H](C)[C@H]1CC[C@H]2[C@@H]3CC=C4C[C@@H](O)CC[C@]4(C)[C@H]3CC[C@]12C [Xol, Cholesterol]
effect on enzymatic activities [2]: did not significantly affect

C[C@H](CCCC(C)(C)O)[C@H]1CC[C@H]2[C@@H]3CC=C4[14CH2][C@@H](OS(=O)(=O)O)CC[C@]4(C)[C@H]3CC[C@]12C [[4-^14C]-25HC3S]
plasma or whole blood concentrations versus Sprague Dawley rats ([3]; first 168 hours post-dose): no substantial difference
binding to pigmented or non-pigmented skin or the uveal tract [3]: no difference
tissue:plasma ratio, adrenal gland [4, 10]: 6.64
tissue:plasma ratio, liver [4, 10]: 6.96
tissue:plasma ratio, small intestine (wall) [4, 10]: 15.4
Skin, thymus, prostate, and pituitary tissue concentrations ([4]; oral 75 mg/kg): < 3000 ng equiv./g
tissue Tmax ([4]; oral 75 mg/kg): ≤ 6 hours post-dose
tissue distribution of compound and/or metabolites ([4]; oral 75 mg/kg, detected in all tissues except the eye (lens)): broadly distributed
plasma:whole blood AUClast ratio ([4]; oral (gavage) 75 mg/kg): 1.12
whole blood AUClast ([4]; oral (gavage) 75 mg/kg): 127,000 h-ng equiv./g
dose recovered in urine, feces, and cage rinse [5]: approximately 94.5%
recovered radioactivity in feces [5]: 94.2%
plasma AUClast [6]: 96,400 h-ng equiv./g
terminal elimination phase T1/2 [6]: 27.3 h
dose recovered in urine, feces, and cage rinse [7]: approximately 100.2%
recovered radioactivity in feces [7]: 83.0%
tissue:plasma ratio, liver ([8]; calculated using AUClast): 11.4
tissue:plasma ratio, small intestine (wall) ([8]; calculated using AUClast): 7.44
plasma:whole blood AUClast ratio ([8]; Group 3): 0.79
whole blood AUClast ([8]; Group 3): 25,200 h*ng-equiv./g
maximum plasma concentration ([8]; QWBA phase): 12,400 ng-equiv./g
AUClast in the liver ([8]; derived radioactivity): ≤ 364,000 h-ng/g
tissue distribution of compound and/or metabolites ([8]; detected in all tissues except the eye (lens)): broadly distributed
terminal elimination phase T1/2, plasma ([9]; PK phase): 26.6 h
mean plasma C0 ([9]; total radioactivity): 25,900 ng-equiv./g
plasma AUClast ([9]; total radioactivity): 27,900 h*ng-equiv./g

desmosterol sulfate
detection in plasma or feces samples ([1]; radiolabeled): not found
